± gives the expanded uncertainty stated by the source.
Conditions: Crystal

Cc1ncc(COP(=O)(O)O)c(C=O)c1O.O [pyridoxal 5-phosphate hydrate]
mass density (293 K, 101.33 kPa, Pycnometric method): 1536 ± 5 kg/m3
Normal melting temperature (DTA): 148.56 ± 0.5 °C
